Reference: article PMC5107250, “Identification of Novel Inhibitors against Coactivator Associated Arginine Methyltransferase 1 Based on Virtual Screening and Biological Assays” (BioMed Research International, 2016)

Legend:
PRMT6 = PRMT6 (Homo sapiens, UniProt Q96LA8); assay: In vitro enzyme selectivity assay, PRMT6; assay type: biochemical; details: in duplicate
Experimental: (§1) The enzymatic inhibitory activities of compounds were measured by the AlphaLISA assay provided by Shanghai ChemPartner Co., Ltd. The compounds selected from virtual screening were transferred to the assay plate (white opaque OptiPlate-384, PerkinElmer). 5 μL of enzyme solution (final concentration was 0.1 nM) or pH 8.0 tris-based assay buffer (for Min well) was added to the assay plate and then centrifuged at 1000 rpm for 1 min. Afterwards, the assay plate was incubated for 15 min at room temperature (RT). Then 5 μL of biotinylated H3 peptide/SAM mix (final concentrations were 50 nM and 300 nM, resp.) was added to the assay plate, which was covered with TopSeal-Afilm and incubated for 1 h at RT after centrifuging at 1000 rpm for 1 min (DMSO final concentration 1%). Next, 5 μL of acceptor beads (final concentration was 10 μg/mL) was added to stop the enzymatic reaction. After incubating at room temperature for 60 min, 10 μL of donor beads was added (final concentration was 10 μg/mL) in subdued light and then centrifuged at 1000 rpm for 1 min. Finally, the mixtures were incubated for 30 min at RT, and the signal was read in alpha mode using EnVision readers. The IC50 values were calculated by fit inhibition rates under different concentrations into GraphPad Prism 5.0 software. […]

CARM1 = target: T1, CARM1 (Homo sapiens, UniProt Q86X55); assay: AlphaLISA CARM1 enzyme inhibition assay; assay type: biochemical; details: biotinylated H3 peptide 50 nM, SAM 300 nM, enzyme 0.1 nM, in duplicate
T1 sequence (Q86X55 1-608): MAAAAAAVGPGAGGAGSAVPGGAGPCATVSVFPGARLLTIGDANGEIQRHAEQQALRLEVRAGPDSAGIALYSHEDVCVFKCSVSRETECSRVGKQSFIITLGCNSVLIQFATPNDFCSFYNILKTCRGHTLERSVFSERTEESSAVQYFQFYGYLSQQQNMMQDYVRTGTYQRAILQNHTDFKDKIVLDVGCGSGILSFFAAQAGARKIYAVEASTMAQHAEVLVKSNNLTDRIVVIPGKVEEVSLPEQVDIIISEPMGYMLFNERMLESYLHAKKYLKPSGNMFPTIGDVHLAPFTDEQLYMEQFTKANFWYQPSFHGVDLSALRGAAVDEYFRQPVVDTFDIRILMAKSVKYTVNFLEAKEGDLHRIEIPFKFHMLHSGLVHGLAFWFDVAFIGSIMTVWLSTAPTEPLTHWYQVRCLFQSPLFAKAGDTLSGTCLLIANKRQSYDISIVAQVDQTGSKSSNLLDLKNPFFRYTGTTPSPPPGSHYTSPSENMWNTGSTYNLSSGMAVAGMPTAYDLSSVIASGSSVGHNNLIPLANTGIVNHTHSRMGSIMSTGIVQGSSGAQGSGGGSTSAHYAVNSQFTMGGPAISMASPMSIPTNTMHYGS
Experimental: The enzymatic inhibitory activities of compounds were measured by the AlphaLISA assay provided by Shanghai ChemPartner Co., Ltd. The compounds selected from virtual screening were transferred to the assay plate (white opaque OptiPlate-384, PerkinElmer). 5 μL of enzyme solution (final concentration was 0.1 nM) or pH 8.0 tris-based assay buffer (for Min well) was added to the assay plate and then centrifuged at 1000 rpm for 1 min. Afterwards, the assay plate was incubated for 15 min at room temperature (RT). Then 5 μL of biotinylated H3 peptide/SAM mix (final concentrations were 50 nM and 300 nM, resp.) was added to the assay plate, which was covered with TopSeal-Afilm and incubated for 1 h at RT after centrifuging at 1000 rpm for 1 min (DMSO final concentration 1%). Next, 5 μL of acceptor beads (final concentration was 10 μg/mL) was added to stop the enzymatic reaction. […] Finally, the mixtures were incubated for 30 min at RT, and the signal was read in alpha mode using EnVision readers. The IC50 values were calculated by fit inhibition rates under different concentrations into GraphPad Prism 5.0 software. […] The end point was read in alpha mode using EnVision readers, and IC50 values were calculated in GraphPad Prism 5.0 software.

HELA (cervical cancer) = assay: Cell viability (MTT) assay, HELA; assay type: cell-based, human; details: 24 hrs, 48 hrs, 72 hrs, Figure 2
Experimental: (§2) The three cell lines, HELA, K562, and MCF7, were purchased from the American Type Culture Collection (ATCC). HELA, K562, and MCF7 were cultured in DMEM (Life Technologies) supplemented with 10% FBS. All of the cell lines were seeded into 96-well plates at an appropriate density and then treated with compounds of different concentrations or DMSO control. After 24 hrs, 48 hrs, and 72 hrs, cell viabilities were measured by the MTT assay. It has been reported that CARM1 was a potential target in many cancers; thus it is well accepted that inhibiting CARM1 could affect cancer cell proliferation. In this study, three human tumor cell lines including HELA (cervical cancer), K562 (myeloid leukemia), and MCF7 (breast cancer) were chosen to evaluate the cellular activity of the two compounds DC_C11 and DC_[…]. Sinefungin, a pan-PRMTs inhibitor which has the same scaffold as the cofactor SAM does, was evaluated for control experiment. […] In the three cell lines, DC_[…] presents better antiproliferative cellular activity, which is consistent with their inhibitory activity in vitro. Combined with the biological data in vitro, we confirmed that compounds DC_C11 and DC_[…] are cell membrane permeable, which presented promising activity both in vitro and in cellular environment.  Figure 2 Antiproliferative effect of DC_C11 and DC_[…] on several cancer cell lines. (a-c) Time-dependent and dose-dependent inhibitory effect of DC_C11 on HELA, K562, and MCF7 within 24 hrs, 48 hrs, and 72 hrs, respectively. (d-f) Time-dependent and dose-dependent inhibitory effect of DC_[…] on HELA, K562, and MCF7 within 24 hrs, 48 hrs, and 72 hrs, respectively. (g-i) Time-dependent and dose-dependent inhibitory effect of Sinefungin on HELA, K562, and MCF7 within 24 hrs, 48 hrs, and 72 hrs, respectively.

MCF7 (breast cancer) = assay: Cell viability (MTT) assay, MCF7; assay type: cell-based, human; details: 24 hrs, 48 hrs, 72 hrs, Figure 2
Experimental: as §2

K562 (myeloid leukemia) = assay: Cell viability (MTT) assay, K562; assay type: cell-based, human; details: 24 hrs, 48 hrs, 72 hrs, Figure 2
Experimental: as §2

PRMT1 = PRMT1 (Homo sapiens, UniProt Q99873); assay: In vitro enzyme selectivity assay, PRMT1; assay type: biochemical; details: in duplicate
PRMT1, sequence (Q99873 whole entry, species assumed): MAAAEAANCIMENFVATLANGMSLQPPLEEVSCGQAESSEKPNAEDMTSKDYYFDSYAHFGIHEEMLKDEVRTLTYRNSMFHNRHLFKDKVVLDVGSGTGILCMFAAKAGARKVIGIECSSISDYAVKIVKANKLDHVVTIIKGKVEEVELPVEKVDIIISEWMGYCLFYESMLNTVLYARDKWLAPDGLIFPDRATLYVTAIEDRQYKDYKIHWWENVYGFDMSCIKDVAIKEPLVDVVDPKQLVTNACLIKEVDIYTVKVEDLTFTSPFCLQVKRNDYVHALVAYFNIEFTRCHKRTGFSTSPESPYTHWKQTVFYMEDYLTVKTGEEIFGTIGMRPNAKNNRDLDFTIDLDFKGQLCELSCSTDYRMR
Experimental: as §1

PRMT5 = PRMT5 (Homo sapiens, UniProt O14744); assay: In vitro enzyme selectivity assay, PRMT5; assay type: biochemical; details: at a concentration of 50 μM; read-out: inhibition rate of PRMT5
PRMT5, sequence (O14744 whole entry, species assumed): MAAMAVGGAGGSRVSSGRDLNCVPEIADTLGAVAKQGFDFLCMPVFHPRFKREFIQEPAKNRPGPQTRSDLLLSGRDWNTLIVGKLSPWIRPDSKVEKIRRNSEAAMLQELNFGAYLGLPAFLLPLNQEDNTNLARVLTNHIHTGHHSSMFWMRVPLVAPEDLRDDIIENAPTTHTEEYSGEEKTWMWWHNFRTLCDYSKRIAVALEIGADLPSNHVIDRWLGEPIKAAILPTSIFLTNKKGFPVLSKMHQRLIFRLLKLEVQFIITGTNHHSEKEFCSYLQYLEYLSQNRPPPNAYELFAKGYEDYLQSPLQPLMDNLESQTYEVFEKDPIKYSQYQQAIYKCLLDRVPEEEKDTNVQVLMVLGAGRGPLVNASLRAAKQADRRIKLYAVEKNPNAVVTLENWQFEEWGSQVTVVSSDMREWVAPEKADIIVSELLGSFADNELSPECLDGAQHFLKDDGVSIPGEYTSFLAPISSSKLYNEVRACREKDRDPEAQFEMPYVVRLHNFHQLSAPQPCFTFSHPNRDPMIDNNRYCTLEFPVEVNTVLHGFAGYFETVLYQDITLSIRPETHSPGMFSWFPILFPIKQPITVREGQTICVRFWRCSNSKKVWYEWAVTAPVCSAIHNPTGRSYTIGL
PRMT5, sequence (Q9BQA1 whole entry partner, species assumed): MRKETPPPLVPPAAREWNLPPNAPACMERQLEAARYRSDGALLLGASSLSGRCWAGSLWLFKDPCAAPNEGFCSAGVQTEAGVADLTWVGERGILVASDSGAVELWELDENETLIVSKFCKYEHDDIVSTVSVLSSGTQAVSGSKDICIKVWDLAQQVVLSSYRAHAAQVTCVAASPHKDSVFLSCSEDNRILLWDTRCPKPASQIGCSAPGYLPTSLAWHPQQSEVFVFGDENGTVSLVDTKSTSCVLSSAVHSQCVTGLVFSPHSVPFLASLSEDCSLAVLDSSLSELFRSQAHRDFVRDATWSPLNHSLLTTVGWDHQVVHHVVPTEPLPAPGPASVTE
Experimental: as §1

PRMT6, sequence (Q96LA8 whole entry, species assumed): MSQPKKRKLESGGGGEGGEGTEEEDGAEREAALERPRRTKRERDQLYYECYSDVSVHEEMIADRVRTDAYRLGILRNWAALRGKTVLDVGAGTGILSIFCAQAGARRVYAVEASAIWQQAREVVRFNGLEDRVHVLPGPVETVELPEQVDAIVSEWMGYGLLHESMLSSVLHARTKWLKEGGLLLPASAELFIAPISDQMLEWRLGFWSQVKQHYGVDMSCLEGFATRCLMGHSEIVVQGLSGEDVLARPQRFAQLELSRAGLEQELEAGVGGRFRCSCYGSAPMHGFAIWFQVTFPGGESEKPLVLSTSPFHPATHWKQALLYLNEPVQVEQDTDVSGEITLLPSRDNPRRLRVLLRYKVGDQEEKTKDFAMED

Structure (SMILES) | IC50 (PRMT6) [µM] | IC50 (CARM1) [µM] | Antiproliferative effect on HELA (HELA (cervical cancer)) | Antiproliferative effect on MCF7 (MCF7 (breast cancer)) | Antiproliferative effect on K562 (K562 (myeloid leukemia)) | IC50 (PRMT1) [µM] | inhibition at 50 µM (PRMT5) [%]
O=C(c1ccccc1)c1c2c(cc3sc4ccccc4[n+]13)-c1cccc3cccc-2c13 [DC_C11] | 41 | 15 | inhibit proliferation of cancer cells in a time-dependent and dose-dependent manner | inhibit proliferation of cancer cells in a time-dependent and dose-dependent manner | inhibit proliferation of cancer cells in a time-dependent and dose-dependent manner | 36 | –
CCOC(=O)c1c2c3ccccc3c3ccccc3c2cc2[n+]1CCc1ccccc1-2 [DC_C66] | 47 | 1.8 | inhibit proliferation of cancer cells in a time-dependent and dose-dependent manner | inhibit proliferation of cancer cells in a time-dependent and dose-dependent manner | inhibit proliferation of cancer cells in a time-dependent and dose-dependent manner | 21 | < 50
Nc1ncnc2c1ncn2[C@@H]1O[C@H](C[C@@H](N)CC[C@H](N)C(=O)O)[C@@H](O)[C@H]1O [Sinefungin, reference compound] | – | – | weaker inhibitory activity | weaker inhibitory activity | weaker inhibitory activity | – | –
